# Experimental data reported in article PMC9297976 (Journal of Applied Toxicology, 2021).
# Legend:
# medaka Esr1 (mEsr1) [1] = target: T1, medaka Esr1 (mEsr1) (Oryzias latipes, UniProt P50241); test: cell-based; design: species or system Japanese medaka (Oryzias latipes)
# T1 sequence (P50241 1-620): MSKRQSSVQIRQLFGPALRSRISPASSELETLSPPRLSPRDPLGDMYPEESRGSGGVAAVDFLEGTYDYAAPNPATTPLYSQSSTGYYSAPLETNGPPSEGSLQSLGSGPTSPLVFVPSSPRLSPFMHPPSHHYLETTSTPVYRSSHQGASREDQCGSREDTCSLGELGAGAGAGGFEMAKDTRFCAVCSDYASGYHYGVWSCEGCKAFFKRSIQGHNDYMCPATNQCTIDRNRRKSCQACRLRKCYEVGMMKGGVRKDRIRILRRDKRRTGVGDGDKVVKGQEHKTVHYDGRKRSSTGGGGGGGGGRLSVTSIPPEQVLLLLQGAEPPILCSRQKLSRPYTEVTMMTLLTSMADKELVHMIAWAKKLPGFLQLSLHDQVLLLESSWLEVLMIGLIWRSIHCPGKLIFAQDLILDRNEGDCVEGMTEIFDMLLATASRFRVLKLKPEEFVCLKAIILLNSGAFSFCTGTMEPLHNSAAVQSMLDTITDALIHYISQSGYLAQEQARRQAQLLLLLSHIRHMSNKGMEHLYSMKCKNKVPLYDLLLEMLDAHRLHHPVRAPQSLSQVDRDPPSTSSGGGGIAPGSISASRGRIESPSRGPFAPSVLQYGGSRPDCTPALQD
# medaka ARβ (mArβ) [2] = target: T2, medaka ARβ (mArβ) (Oryzias latipes, UniProt D1MV73); test: Medaka ARβ reporter gene assay, agonist assay; format: cell-based, Japanese medaka (Oryzias latipes); settings: MAC = 1.0 × 10^−5 M
# T2 sequence (D1MV73 1-744): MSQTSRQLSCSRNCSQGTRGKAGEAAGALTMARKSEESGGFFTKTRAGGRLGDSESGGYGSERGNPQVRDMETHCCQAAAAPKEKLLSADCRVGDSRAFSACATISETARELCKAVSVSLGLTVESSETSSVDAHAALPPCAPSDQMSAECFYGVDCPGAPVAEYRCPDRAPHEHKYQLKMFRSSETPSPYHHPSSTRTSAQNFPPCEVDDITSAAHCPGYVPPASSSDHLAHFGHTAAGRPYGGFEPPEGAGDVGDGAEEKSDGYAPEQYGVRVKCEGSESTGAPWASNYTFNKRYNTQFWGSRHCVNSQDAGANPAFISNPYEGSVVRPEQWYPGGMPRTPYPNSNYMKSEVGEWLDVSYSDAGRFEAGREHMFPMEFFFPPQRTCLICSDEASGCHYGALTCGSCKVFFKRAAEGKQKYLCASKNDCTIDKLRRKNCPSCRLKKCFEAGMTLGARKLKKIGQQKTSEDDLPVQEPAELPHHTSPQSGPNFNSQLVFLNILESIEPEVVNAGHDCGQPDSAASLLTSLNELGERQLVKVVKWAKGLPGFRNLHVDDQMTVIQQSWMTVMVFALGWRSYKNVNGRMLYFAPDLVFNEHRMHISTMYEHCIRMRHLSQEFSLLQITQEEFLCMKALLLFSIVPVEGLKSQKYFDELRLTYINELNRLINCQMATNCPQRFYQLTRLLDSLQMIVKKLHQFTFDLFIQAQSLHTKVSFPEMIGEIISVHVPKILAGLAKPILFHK
# medaka ARβ (mArβ) [3] = target: T2, medaka ARβ (mArβ); test: Medaka ARβ reporter gene assay, antagonist assay; format: cell-based, Japanese medaka (Oryzias latipes); settings: 11‐KT spiked at 50 nM (D); MAC = 1.0 × 10^−5 M
# medaka Esr1 (mEsr1) [4] = target: T1, medaka Esr1 (mEsr1); test: Medaka Esr1 reporter gene assay, antagonist assay; format: cell-based, Japanese medaka (Oryzias latipes); settings: E2 spiked at 0.2 nM (A); MAC = 1.0 × 10^−5 M
# [5] = system: Japanese medaka (Oryzias latipes); test: Fish Short‐Term Reproduction Assay; format: in vivo; settings: for Fertility rate / Hepatic VTG, female / Hepatic VTG, male / Mortality / Mortality, number of dead fish / Number of fertilized eggs (per female per day) / Number of total eggs (per female per day) / SSC female (joint plates with papillary processes) / SSC male (joint plates with papillary processes): 21 d; for GSI Female / GSI Male / HSI Female / HSI Male / Length Female / Length Male / Weight Female / Weight Male: completion of exposure
# [6] = measured concentration 0.0619 μg/L
# [7] = measured concentration 0.294 μg/L
# [8] = measured concentration 1.30 μg/L
compound,measurement,setting,value
"CC(C)C(C(=O)OC(C#N)c1cccc(Oc2ccccc2)c1)c1ccc(Cl)cc1 (centres unmarked) [FV, Fenvalerate]",EC50,medaka Esr1 (mEsr1) [1],2400 nM
same,In vitro positive: Esr,medaka Esr1 (mEsr1) [1]; mode of action in which EC50 or PC10 was obtained in RGA,Esr
same,Agonistic activity,medaka ARβ (mArβ) [2],NE (MAC = 1.0 × 10^−5 M)
same,Antagonistic activity,medaka ARβ (mArβ) [3],NE (MAC = 1.0 × 10^−5 M)^(D)
same,Antagonistic activity,medaka Esr1 (mEsr1) [4],NE (MAC = 1.0 × 10^−5 M) ^(A)
same,Fertility rate,[5]; 0.0619 μg/L measured,92 ± 3.2%
same,"Hepatic VTG, female",[5]; 0.0619 μg/L measured,390 ± 68 ng/mg‐liver
same,"Hepatic VTG, male",[5]; 0.0619 μg/L measured,0.5 ± 0.0 ng/mg‐liver
same,Mortality,[5]; 0.0619 μg/L measured,0.0%
same,"Mortality, number of dead fish",[5]; 0.0619 μg/L measured,0
same,Number of fertilized eggs (per female per day),[5]; 0.0619 μg/L measured,18 ± 2.7
same,Number of total eggs (per female per day),[5]; 0.0619 μg/L measured,19 ± 3.6
same,SSC female (joint plates with papillary processes),[5]; 0.0619 μg/L measured,0 ± 0
same,SSC male (joint plates with papillary processes),[5]; 0.0619 μg/L measured,80 ± 5.6
same,Fertility rate,[5]; 0.294 μg/L measured,93 ± 4.3%
same,"Hepatic VTG, female",[5]; 0.294 μg/L measured,370 ± 212 ng/mg‐liver
same,"Hepatic VTG, male",[5]; 0.294 μg/L measured,0.5 ± 0.0 ng/mg‐liver
same,Mortality,[5]; 0.294 μg/L measured,0.0%
same,"Mortality, number of dead fish",[5]; 0.294 μg/L measured,0
same,Number of fertilized eggs (per female per day),[5]; 0.294 μg/L measured,20 ± 3.5
same,Number of total eggs (per female per day),[5]; 0.294 μg/L measured,21 ± 3.1
same,SSC female (joint plates with papillary processes),[5]; 0.294 μg/L measured,0 ± 0
same,SSC male (joint plates with papillary processes),[5]; 0.294 μg/L measured,88 ± 7.2
same,Fertility rate,[5]; 1.30 μg/L measured,94 ± 2.8%
same,"Hepatic VTG, female",[5]; 1.30 μg/L measured,237 ± 152 ng/mg‐liver
same,"Hepatic VTG, male",[5]; 1.30 μg/L measured,0.9 ± 0.4 ng/mg‐liver
same,Mortality,[5]; 1.30 μg/L measured,0.0%
same,"Mortality, number of dead fish",[5]; 1.30 μg/L measured,0
same,Number of fertilized eggs (per female per day),[5]; 1.30 μg/L measured,23 ± 1.7
same,Number of total eggs (per female per day),[5]; 1.30 μg/L measured,24 ± 1.8
same,SSC female (joint plates with papillary processes),[5]; 1.30 μg/L measured,0 ± 0
same,SSC male (joint plates with papillary processes),[5]; 1.30 μg/L measured,83 ± 4.8
same,LOECREPRO,[5]; LOEC on reproduction (fecundity and/or fertility),ND (>1.30) μg/L
same,minimal effective concentration,"[5]; Oryzias latipes, 504 h, read-out: LOECmVTG",> 0.0013 µg/mL
same,LOECTOX,[5]; lowest observed effect concentration on mortality,ND (>1.3) μg/L
same,GSI Female,[5]; [6],9.9 ± 0.7%
same,GSI Male,[5]; [6],0.75 ± 0.07%
same,HSI Female,[5]; [6],4.3 ± 0.70%
same,HSI Male,[5]; [6],2.7 ± 0.30%
same,Length Female,[5]; [6],33.5 ± 1.1 mm
same,Length Male,[5]; [6],33.8 ± 1.4 mm
same,Weight Female,[5]; [6],454 ± 36 mg
same,Weight Male,[5]; [6],418 ± 51 mg
same,GSI Female,[5]; [7],9.7 ± 0.5%
same,GSI Male,[5]; [7],0.67 ± 0.11%
same,HSI Female,[5]; [7],4.7 ± 0.40%
same,HSI Male,[5]; [7],2.3 ± 0.50%
same,Length Female,[5]; [7],34.4 ± 0.9 mm
same,Length Male,[5]; [7],34.0 ± 0.2 mm
same,Weight Female,[5]; [7],484 ± 33 mg
same,Weight Male,[5]; [7],422 ± 22 mg
same,GSI Female,[5]; [8],10.0 ± 0.1%
same,GSI Male,[5]; [8],0.72 ± 0.10%
same,HSI Female,[5]; [8],4.4 ± 0.80%
same,HSI Male,[5]; [8],2.5 ± 0.20%
same,Length Female,[5]; [8],34.1 ± 0.5 mm
same,Length Male,[5]; [8],33.9 ± 1.9 mm
same,Weight Female,[5]; [8],491 ± 33 mg
same,Weight Male,[5]; [8],416 ± 56 mg
